Where no end group is shown, it is not given here.

Series [1] concerns food intake in C57/BL6 mice. In words: Acute feeding studies (food intake) in overnight-fasted mice. Format: in vivo, mouse. To be noted: for inhibition of food intake over 24 hours vs saline: 0 to 24 hours. The procedure: All animal procedures were approved by the British Home Office, under the United Kingdom Animal (Scientific Procedures) Act 1986 (project license, 70/6402). Adult male C57/BL6 mice (Harlan, Wyton, UK) weighing 20 to 25 g were maintained in individual cages under controlled temperature (21°C to 23°C) and light (12-hour light/dark cycle, with lights on at 7:00 AM). The mice had ad libitum access to water and normal chow RM1 (Special Diet Services, Devon, UK), unless stated otherwise. For acclimatization, the mice were regularly handled and given 2 sham subcutaneous (SC) and/or intraperitoneal (IP) injections of saline. Before each feeding study, the mice were fasted overnight, and the injections were performed during the early light phase (8:00 to 10:00 AM). The mice were stratified by body weight. To investigate the anorectic effects of DPPIV-resistant analogs, the mice were stratified into treatment groups and administered a SC injection (maximum volume, 100 µL) of vehicle, PP, PP3-36, PP2-36, or PP-Ala0 (n = […]). Food intake was measured at 1, 2, 4, and 8 hours after injection to compare the peptides with short half-lives (PP and its endogenous degradation product, PP3-36) and, in a separate experiment, at 24 hours after injection for peptides with modifications (PP-Ala0 and PP2-36, using PP as the comparator). A PP analog with global modifications for enzyme resistance (PP-x) was also investigated and administered as a SC injection (maximum volume, 100 µL) at a high and low dose (n = 9). Food intake was measured at 1, 2, 4, and 8 hours after injection. […] This dose of phosphoramidon was sufficient to inhibit NEP activity ([30]). Food intake was measured at 1, 2, 4, 8, 24, and 48 hours after injection.

The target of a further series is T1, mouse Y4 receptor (Mus musculus, UniProt Q61041).
T1 construct: expressed in transfected cells; host or cells: HEK293
T1 sequence (Q61041 whole entry): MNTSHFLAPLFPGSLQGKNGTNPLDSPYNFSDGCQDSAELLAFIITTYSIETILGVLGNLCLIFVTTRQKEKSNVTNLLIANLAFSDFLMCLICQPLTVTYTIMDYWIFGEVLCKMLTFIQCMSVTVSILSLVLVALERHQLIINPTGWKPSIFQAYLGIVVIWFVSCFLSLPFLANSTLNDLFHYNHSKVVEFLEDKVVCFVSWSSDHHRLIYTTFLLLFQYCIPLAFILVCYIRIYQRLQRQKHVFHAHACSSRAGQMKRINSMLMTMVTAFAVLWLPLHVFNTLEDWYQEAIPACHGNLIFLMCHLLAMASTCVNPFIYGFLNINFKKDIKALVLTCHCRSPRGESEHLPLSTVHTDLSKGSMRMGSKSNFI
In words: Y4 receptor binding assay (125I-PP competition). The procedure: Transfected HEK293 cells overexpressing the mouse Y4 receptor were prepared and binding assays performed as previously described ([29]). Isolated cell membranes (protein concentration, 1 to 2 µg/mL) were incubated for 90 minutes in siliconized polypropylene tubes together with ^125I-PP [1 kBq (100 pM)] and a dose response of unlabeled competing peptides at 4°C in binding buffer [20 mM HEPES (pH 7.4), 1 mM MgCl2, 5 mM CaCl2, 0.1% bovine serum albumin, and protease inhibitors (0.2 mM phenylmethylsulfonyl fluoride, 0.1 mM Diprotin A, and 10 µM phosphoramidon ( all from Sigma-Aldrich)] in a final assay volume of 0.5 mL. PP was iodinated as previously described ([8]) using ^125I from GE Healthcare Life Sciences (Amersham, UK). Pelleted membranes were washed with 5 mL ice-cold assay buffer, and the membranes were centrifuged at 15,874g for 3 minutes at 4°C, as described, to separate bound and free label. Bound radioactivity was measured using a γ-counter (NE 1600; NE Technology Ltd, Reading, UK). Specific binding was calculated as the difference between the amount of ^125I-PP bound in the absence (total binding) and presence of 5 μM unlabeled competing peptide (nonsaturable binding). All curves were performed with points in triplicate. Half maximal inhibitory concentration values were calculated using Prism, version 5.01 (GraphPad Software Inc., San Diego, CA) using a three-parameter logistic equation for the nonlinear regression fit: Y = bottom + (top − bottom)/1 + 10^(LogEC50 − X), where EC50 is the half maximal effective concentration.

A short description of another series: in vivo. Further details: species or system mouse. To be noted: sc. How it is done:
The mice were divided into four treatment groups according to body weight. A protocol similar to that used for the phosphoramidon feeding study was used, with an IP injection, followed by a SC injection 15 minutes later (maximum volume, 50 µL for each injection) of phosphoramidon (0, 7, 20, and 60 mg/kg IP), followed by PP (150 nmol/kg SC in saline; n = 4 to 6; […]). […] Additional mice (n = 2) underwent overnight fasting and were culled at 0 minutes after injection of the control substances (saline SC and vehicle IP) for measurement of the baseline levels of circulating PP. The blood was immediately removed via cardiac puncture and centrifuged at 6000 rpm (Sigma 3K18; 12348 rotor; Sigma-Aldrich) for 10 minutes. The plasma was stored at −20°C until analysis. The plasma samples were assayed using an established in-house PP RIA ([8]). The anti-PP antibody was elevated in rabbit against human PP and recognized PP (and other truncated forms) but not in other PP-fold peptides or gastrointestinal peptides. ^125I-PP was prepared using the iodogen method and purified using HPLC. The assay was performed in duplicate in a total volume of 700 µL of 0.06 M phosphate buffer (pH 7.35) containing 0.3% bovine serum albumin. The samples were incubated for 3 days at 4°C before separation of free and antibody-bound ^125I-PP using dextran-coated charcoal. The sensitivity was ≤5 fmol/tube. The intra-assay coefficient of variation was 6%.

The mark [2] stands for this setting: 150 nmol/kg SC, overnight-fasted C57/BL6 mice, n = 7.

`CC[C@H](C)[C@H](NC(=O)[C@H](Cc1ccc(O)cc1)NC(=O)[C@H](CCCNC(=N)N)NC(=O)[C@H](CCCNC(=N)N)NC(=O)[C@H](CC(C)C)NC(=O)[C@H](CC(=O)O)NC(=O)[C@H](C)NC(=O)[C@H](C)NC(=O)[C@H](Cc1ccc(O)cc1)NC(=O)[C@H](CCC(N)=O)NC(=O)[C@H](C)NC(=O)[C@H](CCSC)NC(=O)[C@H](CCC(N)=O)NC(=O)[C@H](CCC(=O)O)NC(=O)[C@@H]1CCCN1C(=O)[C@@H](NC(=O)[C@H](C)NC(=O)[C@H](CC(N)=O)NC(=O)[C@H](CC(=O)O)NC(=O)CNC(=O)[C@@H]1CCCN1C(=O)[C@H](Cc1ccc(O)cc1)NC(=O)[C@@H](NC(=O)[C@@H]1CCCN1C(=O)[C@H](CCC(=O)O)NC(=O)[C@H](CC(C)C)NC(=O)[C@@H]1CCCN1)C(C)C)[C@@H](C)O)C(=O)N[C@@H](CC(N)=O)C(=O)N[C@@H](CCSC)C(=O)N[C@@H](CC(C)C)C(=O)N[C@H](C(=O)N[C@@H](CCCNC(=N)N)C(=O)N1CCC[C@H]1C(=O)N[C@@H](CCCNC(=N)N)C(=O)N[C@@H](Cc1ccc(O)cc1)C(N)=O)[C@@H](C)O` [PP2-36]: the “inhibition of food intake over 24 hours vs saline” value in series [1] (setting [2]) is “statistically significant inhibition of food intake”.
Consider “PP3-36: DPPIV degradation product of PP (LEPVYPGDNATPEQMAQYAADLRRYINMLTRPRY-NH2; ends and bridges not checked; UniProt P01298 32-65, looked up, fragment)”, for which the “affinity to the Y4 receptor compared with PP” value in the series with mouse Y4 receptor (DPPIV degradation product compared with PP, statement in discussion) is “no substantial reduction in affinity”. Further, the “cumulative food intake 0 to 8 hours” value in series [1] (150 nmol/kg SC, overnight-fasted C57/BL6 mice, n = 7, mean ± SEM) stood at 1.71 ± 0.29 g.
Turning to `N[C@@H](CC(=O)N1CCn2c(nnc2C(F)(F)F)C1)Cc1cc(F)c(F)cc1F` [sitagliptin], the “effect on food intake, inhibitor alone” value in series [1] (sitagliptin 6 mg/kg IP then saline SC, any interval up to 8 hours) is “did not cause a substantial reduction of food intake”.
`CC(C)C[C@H](NP(=O)(O)O[C@@H]1O[C@@H](C)[C@H](O)[C@@H](O)[C@H]1O)C(=O)N[C@@H](Cc1c[nH]c2ccccc12)C(=O)O` [phosphoramidon]: the “effect on food intake, inhibitor alone” value in series [1] (phosphoramidon 5 mg/kg IP then saline SC, any interval up to 48 hours) is on record as “did not cause a substantial reduction of food intake”.
Consider “GAPLEPTYPGDNATPEQLARYAAALRRYINKLTRPRY-NH2 (C-terminus assumed) [PP-x]”, for which the “cumulative food intake at 8 hours (0- to 8-hour interval), low dose” value in series [1] (25 nmol/kg SC, overnight-fasted C57BL/6 mice, n = 9, mean ± SEM) is listed as 1.98 ± 0.14 g. Further, the “food intake at 8 hours, high dose” value in series [1] (150 nmol/kg SC, overnight-fasted C57BL/6 mice, n = 9, mean ± SEM) is 1.04 ± 0.09 g. Besides, the “plasma level at 120 minutes relative to PP” value in “in vivo” (mouse) is reported as “almost threefold”. The compound further gave a level at time molar at 0.5 h in the series “in vivo” (mouse, 100 nmol/kg, plasma peptide level at 30 minutes after injection) of 26.9 nM. In “in vivo” (mouse, 100 nmol/kg, plasma peptide level at 120 minutes after injection), this compound yielded a level at time molar at 2 h of 5.81 ± 0.215 nM.
For the compound `CC[C@H](C)[C@H](NC(=O)[C@H](Cc1ccc(O)cc1)NC(=O)[C@H](CCCNC(=N)N)NC(=O)[C@H](CCCNC(=N)N)NC(=O)[C@H](CC(C)C)NC(=O)[C@H](CC(=O)O)NC(=O)[C@H](C)NC(=O)[C@H](C)NC(=O)[C@H](Cc1ccc(O)cc1)NC(=O)[C@H](CCC(N)=O)NC(=O)[C@H](C)NC(=O)[C@H](CCSC)NC(=O)[C@H](CCC(N)=O)NC(=O)[C@H](CCC(=O)O)NC(=O)[C@@H]1CCCN1C(=O)[C@@H](NC(=O)[C@H](C)NC(=O)[C@H](CC(N)=O)NC(=O)[C@H](CC(=O)O)NC(=O)CNC(=O)[C@@H]1CCCN1C(=O)[C@H](Cc1ccc(O)cc1)NC(=O)[C@@H](NC(=O)[C@@H]1CCCN1C(=O)[C@H](CCC(=O)O)NC(=O)[C@H](CC(C)C)NC(=O)[C@@H]1CCCN1C(=O)[C@H](C)NC(=O)[C@H](C)N)C(C)C)[C@@H](C)O)C(=O)N[C@@H](CC(N)=O)C(=O)N[C@@H](CCSC)C(=O)N[C@@H](CC(C)C)C(=O)N[C@H](C(=O)N[C@@H](CCCNC(=N)N)C(=O)N1CCC[C@H]1C(=O)N[C@@H](CCCNC(=N)N)C(=O)N[C@@H](Cc1ccc(O)cc1)C(N)=O)[C@@H](C)O` [PP-Ala0], the IC50 at mouse Y4 receptor (membranes of HEK293 cells overexpressing mouse Y4 receptor, competition with 125I-PP (100 pM), 90 min, 4°C, mean ± SEM of three to five separate experiments, read-out: IC50 (half maximal inhibitory concentration), Y4 receptor binding affinity) came out at 0.35 ± 0.05 nM. In addition, the “inhibition of food intake over 24 hours vs saline” value in series [1] (setting [2]) is reported as “statistically significant inhibition of food intake”. In addition, the level at time molar at 0.75 h in the series “in vivo” (male, C57BL/6, mouse, 150 nmol/kg, plasma level of PP-Ala0 at 45 minutes, alone) stood at 4.92 ± 0.48 nM. The level at time molar at 1.5 h in the series “in vivo” (male, C57BL/6, mouse, 150 nmol/kg, plasma level of PP-Ala0 at 90 minutes, alone) came out at 1.81 ± 0.319 nM. For the same compound, in “in vivo” (mouse), the “decrease of plasma level (peptide cleared) between 45 and 90 minutes after injection” value is given as 60%.

These data come from paper PMC5460925, “Degradation Paradigm of the Gut Hormone, Pancreatic Polypeptide, by Hepatic and Renal Peptidases” (Endocrinology, 2017).
